System: highly glycopeptide-resistant enterococci
Details: summary of Table III

Row | Compound | in vitro activity against highly glycopeptide-resistant enterococci (in words)
1 | CN[C@H](CC(C)C)C(=O)N[C@H]1C(=O)N[C@@H](CC(N)=O)C(=O)N[C@H]2C(=O)N[C@H]3C(=O)N[C@H](C(=O)N[C@H](C(=O)O)c4cc(O)cc(O)c4-c4cc3ccc4O)[C@H](O)c3ccc(c(Cl)c3)Oc3cc2cc(c3O[C@@H]2O[C@H](CO)[C@@H](O)[C@H](O)[C@H]2O[C@H]2C[C@](C)(N)[C@H](O)[C@H](C)O2)Oc2ccc(cc2Cl)[C@H]1O [vancomycin] | highly resistant
2 | Teicoplanin | highly resistant
